Key:
[1] = Size and polydispersity index PDI of lipid nanoparticles (Malvern Zetasizer Nano ZS); assay type: physicochemical; settings: LNP ionizable lipid/DOPE/cholesterol/DSPE-PEG2000 35/16/46.5/2.5 mol% encapsulating EGFP mRNA; for Particle Size: in nm (unit assumed)
Method: (§1) The ionizable lipid compound of Example 1 was dissolved in ethanol with DOPE, cholesterol and DSPE-PEG2000 (all purchased from AVT (Shanghai) Pharmaceutical Technology Co., Ltd.) at a molar ratio of 35:16:46.5:2.5 to prepare ethanol lipid solution, and enhanced green fluorescent protein (EGFP) mRNAs (Shanghai Maximna Pharmaceutical Engineering Co., Ltd., JN-4201) were diluted in 20 mM citrate buffer (pH=6.1) to obtain mRNA aqueous solution. Ethanol lipid solution and mRNA aqueous solution were mixed at a volume ratio of 1:3 by using a microfluidic device (Micro&Nano (Shanghai) Instrument Technology Co., Ltd., model: INano™ML), LNPs were prepared with a weight ratio of approximately 10:1 between total lipids and mRNAs. The medium was replaced by ultrafiltration, ethanol was removed and volumed with DPBS. Finally, the lipid nanoparticles were filtered through a 0.2 μm sterile filter to obtain a LNP formulation encapsulating eGFP mRNA using ionizable lipid/DOPE/cholesterol/DSPE-PEG2000 (35/16/46.5/2.5 mol %), the concentration of mRNAs being 0.002 mg/mL-0.5 mg/mL.
Using Malvern Zetasizer Nano ZS (Malvern UK), the size and polydispersity index PDI of lipid nanoparticles were measured at […].

[2] = Entrapment efficiency of LNP preparation encapsulating EGFP mRNA; assay type: physicochemical; settings: LNP ionizable lipid/DOPE/cholesterol/DSPE-PEG2000 35/16/46.5/2.5 mol% encapsulating EGFP mRNA
Method: as §1, with “mg/mL. […]” for “mg/mL.”

DC2.4 cells = assay: In vitro transfection of DC2.4 cells with EGFP mRNA LNP preparation (flow cytometry); assay type: cell-based, mouse; settings: DC2.4 cells; for Cell Viability / Positive Rate (EGFP): EGFP mRNA LNP, 200 ng mRNA per well, flow cytometry; for Fluorescence Intensity: EGFP mRNA expression level, normalized based on the sample with the highest fluorescence intensity
Description: The description is based on peripheral blood mononuclear cells PBMC (Shanghai Oribiotech Co., Ltd.), human peripheral blood leukemia T cell Jurkat (ATCC), tumor infiltrating lymphocyte TIL (isolated from resected tumor tissue of a liver cancer patient, the preparation method refers to CN114763530A), mouse bone marrow-derived dendritic cells DC2.4 (Cell Bank of the Chinese Academy of Sciences), and Chinese hamster ovary cells CHO (ATCC) were used as verified cell lines for liposome transfection. PBMC, Jurkat, and TIL cells grew in suspension, while DC2.4 and CHO cells grew by adherent culture. All the operation steps of cell culture must strictly abide by the prescribed procedures, and sterile reagents is used to perform aseptic operations under a sterile workbench. The main steps are as follows: • 1) Cell recovery: the preserved cell cryopreservation solution was taken out of the −80° C. refrigerator, and was immediately put in a 37° C. water bath for rapid and continuous shaking, and was completely melted within one minute. Fresh medium was added to the 15 mL centrifuge tube in advance, and the cell solution was added to the centrifuge tube in a biological safety cabinet. A centrifuge tube of the same quality was taken and placed symmetrically in a centrifuge, centrifuged at a low speed at 1200 rpm for 5 min. After centrifugation, the supernatant was removed, and an appropriate amount of medium was slowly added along the tube wall. After the cells were evenly dispersed by blowing gently, the cell suspension was pipette and added to the culture bottle prepared in advance. The state and distribution of the cells in the early stage of recovery were observed under a microscope. The culture bottle was placed in a 5% CO2 incubator and incubated at 37° C., and the recovery time was recorded. • 2) Cell subculture: Under the microscope, if the cell density in the field of view reaches 80%-90%, the cells can be subcultured. Adherent cells need to be digested with trypsin. In order to avoid the residual serum in the culture medium to reduce the activity of trypsin, DPBS solution was added to wash once after removing the original culture medium. After remove the DPBS solution, trypsin was added to degrade the protein at the junction between cells. This separates the cells for further culture. The cells were gently shaked evenly and put into the incubator for digestion for 2 min. Immediately after the digestion was completed, an appropriate amount of medium was added to the original petri dish to terminate the digestion. Finally, the cells were carefully blowed off using a pipette and blowed until they are evenly dispersed, and then inoculated and subcultured at a certain ratio according to the experimental requirements. […]
• 1) DC2.4 cells recovery: the frozen DC2.4 cells were taken out from the −80° C. refrigerator, put in a 37° C. water bath to quickly thaw the cells, added to the preheated medium after thawing, centrifuged at 1200 rpm for 5 min, the supernatant was discarded, and an appropriate amount of DMEM medium with 10% FBS was added to resuspend the recovered DC2.4, and placed in a 5% CO2 incubator at 37° C. for activation and culture. • 2) According to the experimental arrangement, DC2.4 cells were plated on a 24-well plate one day in advance for cell transfection. Through cell counting, the number of cells and cell viability were recorded, the cell suspension were taken at 2×10^5 cells per well, then a certain volume of DMEM medium containing 10% FBS was added and mixed evenly, 1 mL of mixture was added to each well for subsequent transfection experiment. • 3) After 24 hours, the medium was gently removed 30 minutes in advance by a pipette, 1 mL DPBS was added to each well for washing and then removed, then 300 μL serum-free Opti-MEM medium was added to each well for subsequent transfection experiments.
Subsequent steps are the same as the transfection protocol for PBMC cells. […]

For `CCCCCCCCCCCCCCCCC(O)CN(CCOCCOCCN(CCOCCOCCN(CC(O)CCCCCCCCCCCCCCCC)CC(O)CCCCCCCCCCCCCCCC)CCN1CCN(CCO)CC1)CC(O)CCCCCCCCCCCCCCCC` (stereo not drawn) [K-C18], the PDI [1] was 0.134, the “Particle Size” value [1] was 124.2 and the “Entrapment Efficiency” value [2] was 92.77%. For the same compound, the “Cell Viability” value (DC2.4 cells) was >99.0%, the “Positive Rate (EGFP)” value (DC2.4 cells) was 74.7% and the “Fluorescence Intensity” value (DC2.4 cells) was 0.05.

In the case of `CCCCCCCCCCC(O)CN(CCOCCOCCOCCN(CCOCCOCCOCCN(CC(O)CCCCCCCCCC)CC(O)CCCCCCCCCC)CCN1CCN(CCO)CC1)CC(O)CCCCCCCCCC` [L-C12], the PDI [1] is reported as 0.181, the “Particle Size” value [1] is reported as 88.4 and the “Entrapment Efficiency” value [2] is reported as 93.38%. For the same compound, the “Cell Viability” value (DC2.4 cells) was 84.9%, the “Positive Rate (EGFP)” value (DC2.4 cells) was 58.1% and the “Fluorescence Intensity” value (DC2.4 cells) was 0.07.

With `CCCCCCCCCCCCC(O)CN(CCOCCOCCOCCN(CCOCCOCCOCCN(CC(O)CCCCCCCCCCCC)CC(O)CCCCCCCCCCCC)CCN1CCN(CCO)CC1)CC(O)CCCCCCCCCCCC` [L-C14] the PDI [1] was 0.126, the “Particle Size” value [1] was 101.5 and the “Entrapment Efficiency” value [2] was 91.54%. For the same compound, the “Cell Viability” value (DC2.4 cells) was 99.0%, the “Positive Rate (EGFP)” value (DC2.4 cells) was 60.0% and the “Fluorescence Intensity” value (DC2.4 cells) was 0.04.

For `CCCCCCCCCCCCCCC(O)CN(CCOCCOCCOCCN(CCOCCOCCOCCN(CC(O)CCCCCCCCCCCCCC)CC(O)CCCCCCCCCCCCCC)CCN1CCN(CCO)CC1)CC(O)CCCCCCCCCCCCCC` [L-C16], the PDI [1] was 0.085, the “Particle Size” value [1] was 111.5 and the “Entrapment Efficiency” value [2] was 92.34%. For the same compound, the “Cell Viability” value (DC2.4 cells) was 97.2%, the “Positive Rate (EGFP)” value (DC2.4 cells) was 64.8% and the “Fluorescence Intensity” value (DC2.4 cells) was 0.06.

With `CCCCCCCCCCCCCCCCC(O)CN(CCOCCOCCOCCN(CCOCCOCCOCCN(CC(O)CCCCCCCCCCCCCCCC)CC(O)CCCCCCCCCCCCCCCC)CCN1CCN(CCO)CC1)CC(O)CCCCCCCCCCCCCCCC` [L-C18] the PDI [1] was 0.182, the “Particle Size” value [1] was 124.0 and the “Entrapment Efficiency” value [2] was 91.70%. The “Cell Viability” value (DC2.4 cells) was 98.6%, the “Positive Rate (EGFP)” value (DC2.4 cells) was 59.7% and the “Fluorescence Intensity” value (DC2.4 cells) was 0.02.

Reference: patent publication US20250345277A1, “Ionizable Liposome, Preparation Thereof, and Application Thereof in Gene Delivery” (MAXIRNA (ZHEJIANG) TECHNOLOGY CO. LTD., priority 2021, published 2025)
